# Laboratory results published in PubChem BioAssay (NCI).
#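 Cultured in 96-well plates, cells were exposed to test compound for 48 hours across five concentrations. GI50 = concentration required for 50% inhibition of growth. The concentration for full growth arrest is given as TGI.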
# Tests used:
# Assay in all cases: DTP human tumour cell line panel, 48 h
# [1] = tested on: SK-MEL-2 melanoma
# [2] = tested on: LOX IMVI melanoma
# [3] = tested on: HCT-15 colon
# [4] = tested on: MALME-3M melanoma
# [5] = tested on: TK-10 renal
# [6] = tested on: SNB-19 CNS
# [7] = tested on: HL-60(TB) leukemia
# [8] = tested on: MOLT-4 leukemia
# [9] = tested on: U251 CNS
# [10] = tested on: SN12C renal
Compound,TGI [1] [µM],TGI [2] [µM],TGI [3] [µM],TGI [4] [µM],TGI [5] [µM],TGI [6] [µM],TGI [7] [µM],TGI [8] [µM],TGI [9] [µM],TGI [10] [µM],GI50 [1] [µM],GI50 [2] [µM],GI50 [3] [µM],GI50 [4] [µM],GI50 [5] [µM],GI50 [6] [µM],GI50 [7] [µM],GI50 [8] [µM],GI50 [9] [µM],GI50 [10] [µM]
NC(N)=NCCCC(NCc1c2ccccc2[n+]([O-])c2ccccc12)C(=O)O (centres undefined),> 100,> 100,> 100,> 100,> 100,> 100,58.7,> 100,> 100,> 100,,,,,,,,,,
C=CCCCCn1c2ccccc2c2c(C)c3c[n+](C)ccc3c(C)c21,1.52,,,1.16,6.89,1.73,0.921,1.28,1.14,,,,,,,,,,,
NS(=O)(=O)c1ccc(N=Nc2nc3[nH]cnc(=S)c3[nH]2)cc1,,15.4,> 50.9,36,19.3,> 100,16.7,4.19,> 100,> 40.1,,,,,,,,,,
C[N+]1(CCCC[N+]2(C)CCCCCCC2)CCCCCCC1,> 100,> 100,> 100,> 100,> 100,> 100,> 100,> 100,> 100,> 100,,,,,,,,,,
Cc1n(-c2ccccc2)c2c([n+]1Cc1ccc([N+](=O)[O-])cc1)C(=O)c1ccccc1C2=O,2.97,3.73,22.5,3.05,19.3,3.22,1.35,2.57,3.35,3.08,,,,,,,,,,
CCN(CC)CCOCC1CCCN2CCCCC12 (centres undefined),> 100,> 100,> 100,> 100,> 100,> 100,> 100,> 100,> 100,> 100,,,,,,,,,,
Cc1cc(=O)[nH]c(NN2C(Cl)C(=O)C2c2c(O)ccc3ccccc23)n1 (centres undefined),30.2,32.7,36.9,,> 100,77.6,49.3,64.1,63.1,69.5,,,,,,,,,,
c1ccc(C2=NN[C@H](c3cn(-c4ccccc4)nc3-c3ccccc3)C2)cc1,> 100,> 100,> 100,> 100,7.74,> 100,> 100,> 100,15.6,> 100,30.2,3.33,> 100,8.98,2.82,5.05,> 100,> 100,2.91,4.18
CCCC(=O)[O-].CCCC(=O)[O-].N.N.N.N.[Co+3].[O-][Cl+3]([O-])([O-])[O-],> 100,> 100,> 100,> 100,> 100,> 100,> 100,> 100,> 100,> 100,,,,,,,,,,
COc1cc(O)c2c(c1O)C(=O)c1cc(C)ncc1C2=O,> 50,45.2,> 50,27.6,> 50,> 50,> 50,> 50,30.7,> 50,,,,,,,,,,
CCCCCCCSCC1OC(n2cnc3c(N)ncnc32)C(O)C1O (centres undefined),44.8,> 100,22.7,> 100,> 100,> 100,27.3,62.4,> 100,65.4,,,,,,,,,,
Nc1nc(Sc2ccc([N+](=O)[O-])cn2)c2[nH]cnc2n1,10.2,17.1,> 73.3,36.1,> 100,72.1,> 59.4,> 35.8,> 64.3,29.4,,,,,,,,,,
Cc1n(CC(C)C)c2c([n+]1CC(=O)c1ccc([N+](=O)[O-])cc1)C(=O)c1ccccc1C2=O,0.0837,0.131,15.6,< 0.0205,,0.104,< 0.01,0.0742,0.034,0.0107,,,,,,,,,,
